{"source": "patent EP1200406B1", "about": "“CYCLIC AMIDES AND IMIDES HAVING SELECTIVE ANTAGONIST ACTIVITY AT ALPHA-1D ADRENERGIC RECEPTOR” (RECORDATI INDUSTRIA CHIMICA E FARMACEUTICA S.p.a., priority 1999, dated 2001)", "key": {"[1]": {"biological_target": "T1, human 5-HT1A-serotoninergic receptor (Homo sapiens, UniProt P08908)", "T1 construct": "expressed in transfected cells; host or cells: HeLa cells (membranes)", "T1 sequence (P08908 1-422)": "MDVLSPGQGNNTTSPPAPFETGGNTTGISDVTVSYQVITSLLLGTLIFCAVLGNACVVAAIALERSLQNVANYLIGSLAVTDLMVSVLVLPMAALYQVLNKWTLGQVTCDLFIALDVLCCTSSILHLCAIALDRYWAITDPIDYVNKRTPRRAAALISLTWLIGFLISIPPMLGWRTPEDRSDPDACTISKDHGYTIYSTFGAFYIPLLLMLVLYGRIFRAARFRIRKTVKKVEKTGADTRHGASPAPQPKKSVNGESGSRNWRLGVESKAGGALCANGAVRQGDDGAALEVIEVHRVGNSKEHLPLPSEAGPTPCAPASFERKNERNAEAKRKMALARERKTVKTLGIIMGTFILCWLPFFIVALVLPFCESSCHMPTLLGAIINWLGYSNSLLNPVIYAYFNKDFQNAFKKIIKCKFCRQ", "test": "Radioligand binding ([3H]8-OH-DPAT) on membranes of HeLa cells expressing cloned 5-HT1A receptor", "details": "human cloned receptor, HeLa cell membranes, 1.2 nM [3H]8-OH-DPAT; read-out: Affinity (Ki) 5-HT1A", "procedure": "(§1) The determination of affinity for cloned subtypes of human α1 adrenergic receptors was performed in membranes from CHO cells (chinese hamster ovary cells) transfected by electroporation with DNA expressing the genes encoding each α1-adrenoceptor subtype, namely α1a, α1b and α1d.. Cloning and stable expression of the human α1-adrenoceptor gene were performed as previously described (Testa et al., Pharmacol. Comm. 6, 79-86 (1995)). CHO cell membranes were incubated in […] Tris pH 7.4 with 0.2 nM [^3H]prazosin, in a final volume of 1.02 ml for 30 minutes at 25°C, in the absence or presence of competing drugs (1 pM-10 µM). Non-specific binding was determined in the presence of 10 µM phentolamine. Incubation was stopped by addition of ice-cold Tris buffer and rapid filtration through 0.2% polyethyleneimine pretreated Schleicher & Schuell GF52 filters. Genomic clone G-21 coding for the human 5-HT1A-serotoninergic receptor was stably transfected in a human cell line (HeLa) (Fargin et al., J. Biol. Chem. 284, 14848-14852 (1989)). The HeLa cells were grown as monolayers in Dulbecco's modified Eagle's medium (DMEM), supplemented with 10% foetal calf serum and gentamicin (100 µg/ml), 5% CO2, at 37°C. The cells were detached from the growth flask at 95% confluence by a cell scraper and were lysed in ice-cold 5 mM Tris and 5-mM EDTA buffer (pH 7.4). The homogenates were centrifuged at 40000 x g x 20 minutes and the membranes were re-suspended in a small volume of ice-cold 5 mM Tris and 5-mM EDTA buffer (pH 7.4) and immediately frozen and stored at -70°C until use. On the experiment day, the cell membranes were re-suspended in a buffer containing 50 mM Tris (pH 7.4), 2.5 mM MgCl2, 10 µM pargyline (Fargin et al., Nature 335, 358-360 (1988)). […] The incubation was stopped by addition of ice-cold Tris buffer and rapid filtration through 0.2%-polyethyleneimine-pretreated Schleicher & Schuell filters. The inhibition of specific binding of the radioligands by the drugs was analysed to estimate the IC50 value by using the non-linear curve-fitting programme Allfit (De Lean et al., Am. J. Physiol. 235, E97-E102 (1978)). The IC50 value was converted to an affinity constant (Ki) by the equation of Cheng & Prusoff (Biochem. Pharmacol. 22, 3099-3108 (1973)). Data were expressed as mean of Ki."}, "Guinea pig spleen α1B": {"biological_target": "T2, Guinea pig spleen α1B (Cavia porcellus, UniProt H0WBQ9)", "T2 construct": "from tissue; host or cells: guinea pig spleen, longitudinal strips", "T2 sequence (H0WBQ9 1-520)": "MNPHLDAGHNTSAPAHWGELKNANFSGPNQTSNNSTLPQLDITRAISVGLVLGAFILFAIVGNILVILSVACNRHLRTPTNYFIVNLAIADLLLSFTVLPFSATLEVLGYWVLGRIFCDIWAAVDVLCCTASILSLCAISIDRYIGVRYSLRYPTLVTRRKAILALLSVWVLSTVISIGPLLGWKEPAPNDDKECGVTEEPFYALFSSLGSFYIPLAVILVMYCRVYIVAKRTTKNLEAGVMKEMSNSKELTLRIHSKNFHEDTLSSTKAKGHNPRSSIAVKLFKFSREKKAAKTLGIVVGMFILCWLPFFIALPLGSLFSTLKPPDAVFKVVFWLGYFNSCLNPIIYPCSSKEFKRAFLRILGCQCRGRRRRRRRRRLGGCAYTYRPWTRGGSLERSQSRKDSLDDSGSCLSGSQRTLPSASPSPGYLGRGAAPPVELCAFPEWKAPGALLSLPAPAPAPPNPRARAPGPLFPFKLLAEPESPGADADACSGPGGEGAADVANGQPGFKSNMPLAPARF", "details": "footnote a: Eltze M., Eur. J. Pharmacol. 260, 211-220 (1994); cited from earlier work"}, "[2]": {"biological_target": "T3, human recombinant α1b adrenoceptor (Homo sapiens, UniProt P35368)", "T3 construct": "expressed in transfected cells; host or cells: CHO cells (membranes)", "T3 sequence (P35368 1-520)": "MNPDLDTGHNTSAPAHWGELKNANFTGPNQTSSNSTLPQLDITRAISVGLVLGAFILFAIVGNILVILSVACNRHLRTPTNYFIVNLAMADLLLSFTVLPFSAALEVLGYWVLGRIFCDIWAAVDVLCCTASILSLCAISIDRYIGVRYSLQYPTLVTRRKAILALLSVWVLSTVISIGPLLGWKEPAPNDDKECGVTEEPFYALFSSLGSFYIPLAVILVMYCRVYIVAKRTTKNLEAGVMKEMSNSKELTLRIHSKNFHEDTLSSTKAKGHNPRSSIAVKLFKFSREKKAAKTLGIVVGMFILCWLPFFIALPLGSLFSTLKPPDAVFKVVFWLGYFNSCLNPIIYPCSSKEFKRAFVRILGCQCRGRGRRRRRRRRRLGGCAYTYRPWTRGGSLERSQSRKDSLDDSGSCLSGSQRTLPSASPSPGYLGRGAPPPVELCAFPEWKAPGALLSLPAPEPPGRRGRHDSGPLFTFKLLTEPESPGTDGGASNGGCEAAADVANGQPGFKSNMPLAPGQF", "test": "Radioligand binding ([3H]prazosin) on membranes of CHO cells expressing cloned α1b adrenoceptor", "details": "human cloned receptor, CHO cell membranes, 0.2 nM [3H]prazosin; read-out: Affinity (Ki) α1b", "procedure": "as §1"}}}
{"smiles": "COc1ccccc1N1CCN(CCN2C(=O)CC3(CCCC3)CC2=O)CC1", "note": "[BMY-7378, reference compound]", "values": [{"measurement": "Ki", "setting": "[1]", "value": 0.93, "unit": "nM"}, {"measurement": "Functional affinity pKB, Guinea pig spleen α1B", "setting": "Guinea pig spleen α1B", "value": "6.55^a"}, {"measurement": "Ki", "setting": "[2]", "value": 69, "unit": "nM"}]}
